Reference: ChEMBL document CHEMBL1201862, “PubChem BioAssay data set” (2004)
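Interpolation was linear, between the two tested concentrations surrounding the appropriate level; five concentrations were tested over 48 hours in 96-well plates. Abbreviation: GI50, concentration required for 50% inhibition of growth.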 Activity calls are given as the source filed them. Rule as the data show it: active = GI50 up to about 1.1 µM and inactive = higher.

Columns and labels:
Test in all cases: NCI-60 cell line screen, 48 h
OVCAR-8 = test system: OVCAR-8
SR = test system: SR
M14 = test system: M14
NCI-H23 = test system: NCI-H23
EKVX = test system: EKVX
SK-MEL-2 = test system: SK-MEL-2
CCRF-CEM = test system: CCRF-CEM
OVCAR-5 = test system: OVCAR-5
HL-60 = test system: HL-60
CAKI-1 = test system: CAKI-1
COLO 205 = test system: COLO 205
IGROV-1 = test system: IGROV-1
SF-268 = test system: SF-268
OVCAR-3 = test system: OVCAR-3
TK-10 = test system: TK-10
HCT-15 = test system: HCT-15
SW-620 = test system: SW-620
OVCAR-4 = test system: OVCAR-4
UACC-257 = test system: UACC-257
UACC-62 = test system: UACC-62
UO-31 = test system: UO-31
SNB-75 = test system: SNB-75
NCI-H460 = test system: NCI-H460
Malme-3M = test system: Malme-3M
HCC 2998 = test system: HCC 2998
MOLT-4 = test system: MOLT-4
SNB-19 = test system: SNB-19
ACHN = test system: ACHN
Hs-578T = test system: Hs-578T
786-0 = test system: 786-0
MDA-MB-231 = test system: MDA-MB-231
BT-549 = test system: BT-549
HCT-116 = test system: HCT-116
MDA-MB-435 = test system: MDA-MB-435
SK-MEL-5 = test system: SK-MEL-5
A498 = test system: A498
NCI-H226 = test system: NCI-H226
U-251 = test system: U-251
NCI/ADR-RES = test system: NCI/ADR-RES
KM12 = test system: KM12
RPMI-8226 = test system: RPMI-8226
LOX IMVI = test system: LOX IMVI
SK-MEL-28 = test system: SK-MEL-28
PC-3 = test system: PC-3
K562 = test system: K562
HOP-92 = test system: HOP-92
SF-295 = test system: SF-295
HT-29 = test system: HT-29
SK-OV-3 = test system: SK-OV-3
HOP-62 = test system: HOP-62
A549 = test system: A549
SF-539 = test system: SF-539
SN12C = test system: SN12C
RXF 393 = test system: RXF 393
MDA-N = test system: MDA-N
MCF7 = test system: MCF7

`CO[C@@]12C[C@@H](C)C3=CCC(C)=C3CC1=C(C)C(=O)O2` was tested, and the GI50 (OVCAR-8) was > 100 µM (inactive), the GI50 (SR) was 44.2 µM (inactive) and the GI50 (M14) was > 100 µM (inactive). The GI50 (NCI-H23) was > 100 µM (inactive), the GI50 (EKVX) was > 100 µM (inactive) and the GI50 (SK-MEL-2) was > 100 µM (inactive). For the same compound, the GI50 (CCRF-CEM) was 50.8 µM (inactive), the GI50 (OVCAR-5) was > 100 µM (inactive) and the GI50 (HL-60) was 50.8 µM (inactive). The GI50 (CAKI-1) was > 100 µM (inactive), the GI50 (COLO 205) was > 100 µM (inactive) and the GI50 (IGROV-1) was > 100 µM (inactive). For the same compound, the GI50 (SF-268) was > 100 µM (inactive), the GI50 (OVCAR-3) was > 100 µM (inactive) and the GI50 (TK-10) was > 100 µM (inactive). For the same compound, the GI50 (HCT-15) was > 100 µM, the GI50 (SW-620) was > 100 µM (inactive) and the GI50 (OVCAR-4) was > 100 µM (inactive). For the same compound, the GI50 (UACC-257) was > 100 µM (inactive), the GI50 (UACC-62) was > 100 µM (inactive) and the GI50 (UO-31) was > 100 µM (inactive). The GI50 (SNB-75) was 63.4 µM (inactive), the GI50 (NCI-H460) was > 100 µM (inactive) and the GI50 (Malme-3M) was > 100 µM (inactive). For the same compound, the GI50 (HCC 2998) was > 100 µM (inactive), the GI50 (MOLT-4) was 45.7 µM (inactive) and the GI50 (SNB-19) was > 100 µM (inactive). The GI50 (ACHN) was > 100 µM (inactive), the GI50 (Hs-578T) was > 100 µM (inactive) and the GI50 (786-0) was > 100 µM (inactive). The GI50 (MDA-MB-231) was > 100 µM (inactive), the GI50 (BT-549) was > 100 µM (inactive) and the GI50 (HCT-116) was > 100 µM (inactive). For the same compound, the GI50 (MDA-MB-435) was > 100 µM (inactive), the GI50 (SK-MEL-5) was > 100 µM (inactive) and the GI50 (A498) was > 100 µM (inactive). The GI50 (NCI-H226) was > 100 µM (inactive), the GI50 (U-251) was > 100 µM (inactive) and the GI50 (NCI/ADR-RES) was > 100 µM (inactive). For the same compound, the GI50 (KM12) was > 100 µM (inactive), the GI50 (RPMI-8226) was 57.8 µM (inactive) and the GI50 (LOX IMVI) was > 100 µM (inactive). For the same compound, the GI50 (SK-MEL-28) was > 100 µM (inactive), the GI50 (PC-3) was 85.7 µM (inactive) and the GI50 (K562) was 53.3 µM (inactive). For the same compound, the GI50 (HOP-92) was > 100 µM (inactive), the GI50 (SF-295) was > 100 µM (inactive) and the GI50 (HT-29) was > 100 µM (inactive). The GI50 (SK-OV-3) was 68.7 µM (inactive).
With `C#CCCCC(=C)C[C@H](OCc1ccccc1)[C@H]1OC(=O)[C@@H]1C` the GI50 (OVCAR-8) was 31.8 µM (inactive), the GI50 (SR) was 44.5 µM (inactive) and the GI50 (M14) was 81.3 µM (inactive). For the same compound, the GI50 (NCI-H23) was 36 µM (inactive), the GI50 (EKVX) was > 100 µM (inactive) and the GI50 (SK-MEL-2) was > 100 µM (inactive). The GI50 (HOP-62) was > 100 µM (inactive), the GI50 (CCRF-CEM) was > 100 µM (inactive) and the GI50 (OVCAR-5) was > 100 µM (inactive). For the same compound, the GI50 (A549) was 56.4 µM (inactive), the GI50 (SF-539) was 20.5 µM (inactive) and the GI50 (HL-60) was 66.1 µM (inactive). The GI50 (CAKI-1) was 14.9 µM (inactive), the GI50 (SF-268) was > 100 µM (inactive) and the GI50 (OVCAR-3) was 31.3 µM (inactive). For the same compound, the GI50 (SN12C) was > 100 µM (inactive), the GI50 (RXF 393) was > 100 µM (inactive) and the GI50 (TK-10) was > 100 µM (inactive). The GI50 (HCT-15) was 79.4 µM, the GI50 (SW-620) was > 100 µM (inactive) and the GI50 (OVCAR-4) was > 100 µM (inactive). For the same compound, the GI50 (UACC-257) was > 100 µM (inactive), the GI50 (UACC-62) was > 100 µM (inactive) and the GI50 (UO-31) was 23.9 µM (inactive). For the same compound, the GI50 (SNB-75) was > 100 µM (inactive), the GI50 (NCI-H460) was > 100 µM (inactive) and the GI50 (HCC 2998) was > 100 µM (inactive). The GI50 (SNB-19) was > 100 µM (inactive), the GI50 (ACHN) was 72.6 µM (inactive) and the GI50 (MDA-MB-231) was 13.2 µM (inactive). The GI50 (BT-549) was > 100 µM (inactive), the GI50 (MDA-N) was 22.9 µM (inactive) and the GI50 (MDA-MB-435) was 48.6 µM (inactive). The GI50 (A498) was > 100 µM (inactive), the GI50 (NCI-H226) was 96.4 µM (inactive) and the GI50 (U-251) was > 100 µM (inactive). For the same compound, the GI50 (NCI/ADR-RES) was 40.9 µM (inactive), the GI50 (KM12) was 39 µM (inactive) and the GI50 (RPMI-8226) was 11.5 µM (inactive). For the same compound, the GI50 (SK-MEL-28) was > 100 µM (inactive), the GI50 (PC-3) was 48.2 µM (inactive) and the GI50 (HOP-92) was 37.6 µM (inactive). The GI50 (SF-295) was 89.7 µM (inactive), the GI50 (MCF7) was 37.2 µM (inactive) and the GI50 (SK-OV-3) was > 100 µM (inactive).
